25 molecules from article PMC9144521 (Viruses, 2022) can be followed below.

One series relates to AdV5. Put plainly: Anti-AdV activity assay (IFA of hexon), secondary screen, AdV5. It counts as cell-based, Human adenoviruses type 5. Conditions: for EC50: Vero cells, 48 h, IFA of hexon, 0.02 to 5 μM; for Selective Index AdV5: CC50/EC50, Vero cells.
Another series can be described thus: in vitro. Particulars: African green monkey.
In the next series the test system is AdV3. Kind of series: Anti-AdV activity assay (IFA of hexon), secondary screen, AdV3. It counts as cell-based, Human adenoviruses type 3. Conditions: for Selective Index AdV3: CC50/EC50, Vero cells; for EC50: Vero cells, 48 h, IFA of hexon, 0.02 to 5 μM.

For `Cc1ccc(-n2nc(C(C)(C)C)cc2NC(=O)Nc2ccc(OCCN3CCOCC3)c3ccccc23)cc1` [Doramapimod], the EC50 with AdV5 is > 5000 nM. For the same molecule, in the series “in vitro”, the CC50 at 48 h is > 5 µM. In addition, in the series on AdV3, the “Selective Index AdV3” value is >14.24 and the response was half-maximal at 350 nM (EC50).
`S=C(NCc1ccc2c(c1)OCO2)N1CCN(c2ncnc3c2oc2ccccc23)CC1` [Amuvatinib]: in the series with AdV5, the “Selective Index AdV5” value is recorded as 4.64 and the EC50 was 1800 nM. Besides, the CC50 at 48 h in the series “in vitro” (Vero cells) was > 5 µM. Further, in the series on AdV3, the “Selective Index AdV3” value was 2.10 and a half-maximal response (EC50) required 3970 nM.
As to `CNC(=O)c1cc(Oc2ccc(NC(=O)Nc3ccc(Cl)c(C(F)(F)F)c3)c(F)c2)ccn1` [Regorafenib], in the series on AdV5, the “Selective Index AdV5” value came to 2.72 and the EC50 was 1500 nM. In the series “in vitro” (Vero cells), the CC50 at 48 h stood at 4.06 µM. Further, in the series with AdV3, the “Selective Index AdV3” value was 9.30 and a half-maximal effect (EC50) was put at 440 nM.
On to `O=C(c1ccc(/C=C/c2n[nH]c3ccccc23)cc1)N1CCNCC1` [KW-2449], for which, in the series with AdV5, the “Selective Index AdV5” value was >3.91 and the midpoint of the response, the EC50, lay at 1280 nM. Moreover, the CC50 at 48 h in “in vitro” was > 5 µM. For the same molecule, in the series with AdV3, the “Selective Index AdV3” value is >1.37 and the concentration giving a half-maximal response (EC50) is 3660 nM.
For the molecule `CC1(C)CC(=O)c2c(C(F)(F)F)nn(-c3ccc(C(N)=O)c(N[C@H]4CC[C@H](O)CC4)c3)c2C1` [SNX-2112], in the series with AdV5, the “Selective Index AdV5” value is >15.09 and the concentration giving a half-maximal response (EC50) came to 330 nM. Moreover, in “in vitro” (Vero cells), the CC50 at 48 h was > 5 µM. In addition, in the series with AdV3, the “Selective Index AdV3” value is >28.87 and the response was half-maximal at 170 nM (EC50).
With `CCCCOc1c(C(=O)c2c(F)cc(C)cc2F)c[nH]c2nncc1-2` [BMS-265246], in the series on AdV5, the “Selective Index AdV5” value is >8.35 and the EC50 stood at 600 nM. Also, in the series “in vitro” (Vero cells), the CC50 at 48 h is > 5 µM. In the series with AdV3, the “Selective Index AdV3” value is on record as >7.84 and the EC50 came out at 640 nM.
`COC1=C2C[C@@H](C)C[C@H](OC)[C@H](O)[C@@H](C)/C=C(\C)[C@H](OC(N)=O)[C@@H](OC)/C=C\C=C(/C)C(=O)NC(=CC1=O)C2=O` [Geldanamycin]: the results for the EC50 in the series on AdV5 and with AdV3 were > 5000 nM and 1480 nM, respectively. For the same molecule, in “in vitro”, the CC50 at 48 h is > 5 µM. Further, the “Selective Index AdV3” value with AdV3 is >3.38.
`Cc1nc(Nc2[nH]nc3c2CN(C(=O)N[C@H](CN(C)C)c2ccccc2)C3(C)C)c2sccc2n1` [PF-3758309]: in the series with AdV5, the “Selective Index AdV5” value is >2.22 and it took 2260 nM to reach a half-maximal effect (EC50). Also, in “in vitro” (Vero cells), the CC50 at 48 h is > 5 µM. Moreover, in the series with AdV3, the “Selective Index AdV3” value was >9.29 and a half-maximal effect (EC50) was put at 540 nM.
Turning to `N#CC1(c2ccc(NC(=O)c3cccnc3NCc3ccncc3)cc2)CCCC1` [Apatinib], in the series with AdV5, the “Selective Index AdV5” value was >1.39 and the EC50 turned out to be 3600 nM. Also, the CC50 at 48 h in “in vitro” is > 5 µM. In addition, in the series on AdV3, the “Selective Index AdV3” value was >15.41 and a half-maximal effect (EC50) was put at 320 nM.
For the molecule `Cn1c2ccccc2c2c3c(c4c5ccccc5n(CCC#N)c4c21)CNC3=O` [Go6976], in the series with AdV5, the “Selective Index AdV5” value was found to be 3.22 and the EC50 stood at 1230 nM. Also, the CC50 at 48 h in “in vitro” (Vero cells) came out at 3.95 µM. For the same molecule, in the series on AdV3, the “Selective Index AdV3” value is reported as 6.39 and the EC50 came out at 620 nM.
Turning to `COc1ccc(-c2ccc3c(N4CCOC[C@@H]4C)nc(N4CCOC[C@@H]4C)nc3n2)cc1CO` [AZD8055], in the series with AdV5, the “Selective Index AdV5” value was >31.87 and the EC50 stood at 160 nM. For the same molecule, in “in vitro”, the CC50 at 48 h is > 5 µM. In the series with AdV3, the “Selective Index AdV3” value is recorded as >44.72 and it took 110 nM to reach a half-maximal effect (EC50).
As to `O=C1c2ccc(Nc3ccc(F)cc3F)cc2CCc2ccc(OC[C@H](O)CO)cc21` [Skepinone-L], in the series with AdV5, the “Selective Index AdV5” value is reported as 0.83 and the EC50 came out at 2560 nM. For the same molecule, the CC50 at 48 h in “in vitro” was found to be 2.14 µM. In the series on AdV3, the “Selective Index AdV3” value worked out at 11.84 and the EC50 worked out at 180 nM.
As for `CO[C@H]1CC[C@H](N2C(=O)CNc3ncc(-c4ccc(C(C)(C)O)nc4)nc32)CC1` [CC-223], in the series with AdV5, the “Selective Index AdV5” value is on record as >3.62 and the EC50 is 1380 nM. The CC50 at 48 h in the series “in vitro” (Vero cells) was > 5 µM. In the series on AdV3, the “Selective Index AdV3” value is on record as >4.50 and the EC50 was determined as 1110 nM.
With `CCNC(=O)c1noc(-c2cc(C(C)C)c(O)cc2O)c1-c1ccc(CN2CCOCC2)cc1` [AUY922], in the series on AdV5, the “Selective Index AdV5” value is given as >22.11 and the EC50 was found to be 230 nM. Besides, the CC50 at 48 h in the series “in vitro” is > 5 µM. In the series with AdV3, the “Selective Index AdV3” value was >28.56 and the EC50 amounted to 180 nM.
Consider `COc1cccc(-c2ccc(NC(=O)C3=C(C(=O)O)CCC3)c(F)c2)c1` [Vidofludimus], for which, in the series on AdV5, the “Selective Index AdV5” value is >5.35 and the EC50 was 940 nM. Further, in “in vitro” (Vero cells), the CC50 at 48 h was > 5 µM. In the series on AdV3, the “Selective Index AdV3” value is reported as >3.07 and the EC50 was 1630 nM.
Turning to `COc1cc(Nc2ncc(F)c(Nc3ccc4c(n3)N(COP(=O)(O)O)C(=O)C(C)(C)O4)n2)cc(OC)c1OC` [R788], in the series on AdV5, the “Selective Index AdV5” value came to 1.48 and the EC50 amounted to 1060 nM. Further, in the series “in vitro” (Vero cells), the CC50 at 48 h amounted to 1.56 µM. Besides, in the series on AdV3, the “Selective Index AdV3” value turned out to be 6.65 and a half-maximal effect (EC50) was put at 230 nM.
Regarding `CO[C@@H](C)Cn1c(=O)n(C)c2cnc3ccc(-c4cncc(C(C)(C)O)c4)cc3c21` [LY3023414], in the series on AdV5, the “Selective Index AdV5” value is >3.83 and a half-maximal response (EC50) required 1310 nM. In addition, the CC50 at 48 h in “in vitro” was > 5 µM. In the series on AdV3, the “Selective Index AdV3” value is >5.58 and the response was half-maximal at 900 nM (EC50).
Take `Nc1ccc(-c2ccc3ncc4ccc(=O)n(-c5cccc(C(F)(F)F)c5)c4c3c2)cn1` [Torin 2]: the EC50 in the series with AdV5 came out at 90 nM; in the series with AdV3, 310 nM.
With `CC(C)n1nc(-c2ccc3oc(N)nc3c2)c2c(N)ncnc21` [INK 128], in the series on AdV5, the “Selective Index AdV5” value is listed as 61.27 and the EC50 is 10 nM. For the same molecule, the CC50 at 48 h in the series “in vitro” (Vero cells) came out at 0.85 µM. In addition, in the series on AdV3, the “Selective Index AdV3” value worked out at 161.78 and the EC50 was determined as 10 nM.
Take `NC(=O)CCCSc1nc(N)nc(-c2c(Cl)cc3c4c(cccc24)COC3)n1` [CH5138303]: the EC50 was found to be 650 nM with AdV5 and 90 nM in the series with AdV3.
As to AZD4547, the “Selective Index AdV3” value with AdV3 is given as 8.78.
For `COc1c(C)c2c(c(O)c1C/C=C(\C)CCC(=O)OCCN1CCOCC1)C(=O)OC2` [Mycophenolate Mofetil], in the series with AdV5, the “Selective Index AdV5” value was >25.83 and a half-maximal response (EC50) required 190 nM. For the same molecule, the CC50 at 48 h in the series “in vitro” (Vero cells) was > 5 µM. For the same molecule, in the series on AdV3, the “Selective Index AdV3” value is >2.72 and the response was half-maximal at 1840 nM (EC50).
On to `CNC(=O)CN1CCC(Oc2cc3c(Nc4cccc(Cl)c4F)ncnc3cc2OC)CC1` [AZD8931], for which the EC50 with AdV5 is > 5000 nM; with AdV3 it was 50 nM. Moreover, the CC50 at 48 h in the series “in vitro” was > 5 µM. The “Selective Index AdV3” value in the series on AdV3 was >96.15.
With `CNC(=O)c1cccc(-c2ccc3c(N4CCOC[C@@H]4C)nc(N4CCOC[C@@H]4C)nc3n2)c1` [AZD2014], in the series with AdV5, the “Selective Index AdV5” value was determined as 56.82 and a half-maximal response (EC50) required 70 nM. This molecule had a CC50 at 48 h in the series “in vitro” of 4.05 µM. Further, in the series on AdV3, the “Selective Index AdV3” value was 171.31 and the response was half-maximal at 20 nM (EC50).
On to `CN1CCC(NC(=O)c2cc(-c3c(O)cc(O)cc3Oc3ccc([N+](=O)[O-])cc3)on2)CC1` [NMS-E973], for which the EC50 with AdV5 came out at 4940 nM; with AdV3, 920 nM.

For orientation: EC50 means the concentration needed to bring the measured effect to its halfway point.
